According to article PMC12471299, “Secondary Metabolites of the Marine Sponge-Derived Fungus Aspergillus subramanianii 1901NT-1.40.2 and Their Antimicrobial and Anticancer Activities” (Marine Drugs, 2025):
≈ marks a conversion by molar mass, not a printed value. Where “and” joins values, the source holds several entries; their conditions need not be identical. Equal entries are not always repeated. Values belong to the compound of their own block, whether it stands above or below them.

Experiments:
Candida albicans KMM 455 [1] = test: Antimicrobial assay, growth inhibition (optical density); type: cell-based; settings: Candida albicans, KMM455, 18 h, C. albicans, 18 h
Protocol: (§1) The Gram-positive bacterial Staphylococcus aureus ATCC 21027, Gram-negative bacterial Escherichia coli VKPM (B-7935), and yeast-like fungal Candida albicans KMM 455 strains were fermented on solid medium Mueller Hinton broth with agar (16.0 g/L) in a Petri dish at 37 °C for 24 h. The antimicrobial activity of the compound was tested at concentrations ranging from 100 µM and lower. The effect of the compound on bacterial growth was estimated as described by. Gentamicin and amphotericin B were used as positive controls against S. aureus, E. coli, and C. albicans, and a 1% dimethyl sulfoxide (DMSO) solution in PBS was used as a negative control. The optical density of the bacterial suspension after 18 h was measured at λ = 620 nm. The effect of the compound on biofilm formation for 18 h was tested using MTT reagent (Sigma-Aldrich, St. Louis, MO, USA) in accordance with. The optical density of the obtained solution was measured at λ = 570 nm. A Multiskan FS spectrophotometer (Thermo Scientific Inc., Beverly, MA, USA) was used for both assays. The results were calculated as percentages of the control data and presented as minimal concentrations reduced by 50% of growth or biofilm formation (MIC50).

Candida albicans KMM 455 [2] = test: Biofilm formation assay (MTT); type: cell-based; settings: C. albicans, 18 h
Protocol: as §1

[3] = tested on: Escherichia coli VKPM (B-7935); test: Antimicrobial assay, growth inhibition (optical density); type: cell-based; settings: E. coli, 18 h
Protocol: as §1

[4] = tested on: Staphylococcus aureus ATCC 21027; test: as above; type: cell-based; settings: S. aureus, 18 h
Protocol: as §1

[5] = tested on: Escherichia coli VKPM (B-7935); test: Biofilm formation assay (MTT); type: cell-based; settings: E. coli, 18 h
Protocol: as §1

[6] = tested on: Staphylococcus aureus ATCC 21027; test: Biofilm formation assay (MTT); type: cell-based; settings: S. aureus, 18 h
Protocol: as §1

HaCaT keratinocytes = test: Cell viability assay (MTT); type: cell-based, human
Excerpt: (§2) Rat cardiomyocyte H9c2 cells were kindly provided by Prof. Dr. Gunhild von Amsberg from the Martini-Klinik Prostate Cancer Center, University Hospital Hamburg-Eppendorf, Hamburg, Germany. The human HaCaT keratinocyte cell line was kindly provided by Prof. N. Fusenig (Cancer Research Centre, Heidelberg, Germany). Non-cancerous human breast epithelial MCF-10A cells were kindly provided by Dr. Irina Zhitnyak (N. N. Blokhin National Medical Research Center of Oncology, Moscow, Russia). Human breast cancer MCF-7 HTB-22 and MDA-MB-231 cells were obtained from the ATTC (Manassas, VA, USA).
(§3) H9c2 and HaCaT cells were cultured in DMEM with 10% fetal bovine serum and 1% penicillin/streptomycin (BioloT, St. Petersburg, Russia). MCF-7 and MDA-MB-231 cells were cultured in MEM (BioloT, St. Petersburg, Russia) with 10% fetal bovine serum (FBS) and 1% penicillin/streptomycin (BioloT, St. Petersburg, Russia). MCF 10A cells were cultured in DMEM F12 medium (BioloT, St. Petersburg, Russia) supplemented with 20% FBS, 20 ng/mL hrEGF (Sci-Store, Moscow, Russia), and 1% penicillin/streptomycin (BioloT, St. Petersburg, Russia). All cells were cultured at 37 °C in a humidified atmosphere containing 5% CO2.
(§4) H9c2 cells were seeded at a concentration of 3 × 10^3 cells/well. MCF-10A, MCF-7, and MDA-MB-231 cells were seeded at 5 × 10^3 cells/well, and HaCaT cells were seeded at 1 × 10^4 cells/well. The experiments were initiated after 24 h.
(§5) Compounds at concentrations up to 100 µM were added to the wells for 24h or 48 h, and the viability of the cells was measured using an MTT (3-(4,5-dimethylthiazol-2-yl)-2,5-diphenyltetrazolium bromide) assay, which was performed according to the manufacturer’s instructions (Sigma-Aldrich, Munich, Germany). […] DMSO was used as a control. The results are presented as percentages of the control data.

[7] = tested on: MDA-MB-231 breast cancer cells; test: Cell viability assay (MTT); type: cell-based, human
Excerpt: as §2, §3, §4, §5

[8] = tested on: MCF-10A breast epithelial cells; test: Cell viability assay (MTT); type: cell-based, human; settings: MCF10A
Excerpt: as §2, §3, §4, §5

[9] = tested on: MCF-7 breast cancer cells; test: Cell viability assay (MTT); type: cell-based, human
Excerpt: as §2, §3, §4, §5

H9c2 cardiomyocytes = test: Cell viability assay (MTT); type: cell-based, rat
Excerpt: as §2, §3, §4, §5

MIC50 (Candida albicans KMM 455 [1]): 1.18 ± 0.15 µM (≈ 1.09 µg/mL) | Biofilm formation, MIC50 (Candida albicans KMM 455 [2]): 1.38 ± 0.14 µM
SMILES: C[C@@H]1[C@H](O)[C@@H](C)/C=C/C=C/C=C/C=C/C=C/C=C/C=C/[C@H](O[C@@H]2O[C@H](C)[C@@H](O)[C@H](N)[C@@H]2O)C[C@@H]2O[C@](O)(C[C@@H](O)C[C@@H](O)[C@H](O)CC[C@@H](O)C[C@@H](O)CC(=O)O[C@H]1C)C[C@H](O)[C@H]2C(=O)O [Amphotericin B, reference compound]

Growth inhibition, MIC50 [3]: 21.07 ± 2.11 µM | MIC50 ([3]; Escherichia coli): 21.1 µM (≈ 4.68 µg/mL) | Growth inhibition, MIC50 [4]: 20.34 ± 2.58 µM | MIC50 ([4]; Staphylococcus aureus, ATCC21027, 18 h): 20.3 µM (≈ 4.52 µg/mL) | MIC50 (Candida albicans KMM 455 [1]): > 100 µM | Biofilm formation, MIC50 [5]: 43.51 µM and 43.51 ± 4.03 µM | Biofilm formation, MIC50 [6]: 31.14 µM and 31.14 ± 2.34 µM | Biofilm formation, MIC50 (Candida albicans KMM 455 [2]): >100 µM
SMILES: Cc1c(C)c(O)c2c(c1C)C(C)(O)OC2=O (stereo not shown) [Compound 3, sclerolide]
cell viability (HaCaT keratinocytes; 24 h, 1.0 µM): 94.4 ± 5.9 % of control | cell viability (HaCaT keratinocytes; 24 h, 10.0 µM): 100.2 ± 3.0 % of control | cell viability (HaCaT keratinocytes; 24 h, 100.0 µM): 63.0 ± 8.6 % of control | cell viability (HaCaT keratinocytes; 48 h, 1.0 µM): 96.8 ± 1.0 % of control | cell viability (HaCaT keratinocytes; 48 h, 10.0 µM): 96.6 ± 4.1 % of control | cell viability (HaCaT keratinocytes; 48 h, 100.0 µM): 69.4 ± 3.5 % of control | decrease of viability (HaCaT keratinocytes; at 100 µM, range given for H9c2 and HaCaT together): 30.0–37.5% | cell viability ([7]; MDA-MB-231, 24 h, 1.0 µM): 99.8 ± 1.3 % of control | cell viability ([7]; MDA-MB-231, 24 h, 10.0 µM): 100.6 ± 5.7 % of control | cell viability ([7]; MDA-MB-231, 24 h, 100.0 µM): 68.6 ± 8.3 % of control | cell viability ([7]; MDA-MB-231, 48 h, 1.0 µM): 107.6 ± 2.8 % of control | cell viability ([7]; MDA-MB-231, 48 h, 10.0 µM): 99.0 ± 5.1 % of control | cell viability ([7]; MDA-MB-231, 48 h, 100.0 µM): 60.9 ± 3.6 % of control | IC50 ([8]; Homo sapiens, MCF-10A, time not stated, read-out: half-maximal concentration (IC50), viability): ~100 µM | cell viability ([8]; 24 h, 1.0 µM): 101.7 ± 1.3 % of control | cell viability ([8]; 24 h, 10.0 µM): 92.2 ± 3.5 % of control | cell viability ([8]; 24 h, 100.0 µM): 62.5 ± 2.2 % of control | cell viability ([8]; 48 h, 1.0 µM): 101.6 ± 5.1 % of control | cell viability ([8]; 48 h, 10.0 µM): 74.4 ± 2.4 % of control | cell viability ([8]; 48 h, 100.0 µM): 47.5 ± 7.0 % of control | cell viability ([9]; MCF-7, 24 h, 1.0 µM): 107.2 ± 8.9 % of control | cell viability ([9]; MCF-7, 24 h, 10.0 µM): 95.6 ± 2.4 % of control | cell viability ([9]; MCF-7, 24 h, 100.0 µM): 70.2 ±5.5 % of control | cell viability ([9]; MCF-7, 48 h, 1.0 µM): 83.8 ± 3.1 % of control | cell viability ([9]; MCF-7, 48 h, 10.0 µM): 76.0 ± 2.6 % of control | cell viability ([9]; MCF-7, 48 h, 100.0 µM): 55.1 ± 1.0 % of control | cell viability (H9c2 cardiomyocytes; H9c2, 24 h, 1.0 µM): 81.1 ± 3.2 % of control | cell viability (H9c2 cardiomyocytes; H9c2, 24 h, 10.0 µM): 88.7 ± 4.4 % of control | cell viability (H9c2 cardiomyocytes; H9c2, 24 h, 100.0 µM): 74.6 ± 8.3 % of control | cell viability (H9c2 cardiomyocytes; H9c2, 48 h, 1.0 µM): 102.0 ± 5.5 % of control | cell viability (H9c2 cardiomyocytes; H9c2, 48 h, 10.0 µM): 102.7 ± 6.7 % of control | cell viability (H9c2 cardiomyocytes; H9c2, 48 h, 100.0 µM): 62.5 ± 4.6 % of control | decrease of viability (H9c2 cardiomyocytes; H9c2, at 100 µM, range given for H9c2 and HaCaT together): 30.0–37.5%
